The source of these data is patent US20240269139A1, “COMPOUNDS FOR TARGETED PROTEIN DEGRADATION OF KINASES” (DANA-FARBER CANCER INSTITUTE, INC., priority 2020, published 2024).

Read-outs that look alike come from different tables or passages of the source.

Holding throughout (format): cell-based
For assay [1], the system named is protein kinases (human kinome). Conditions: for logFC LCK: accession P06239-3; for logFC LCK / logFC LCK (P06239-3): direction of change down; for logFC: degrader vs DMSO, down. The source says: (§1) Although development of targeted protein degraders requires a POI binder, among already-liganded proteins such as kinases, it was hypothesized that different targets would have a different propensity for current approaches to degrader-mediated destruction, which was termed ‘degradability’. […] It was rationalized that the probability of identifying the same kinase as a false positive in multiple treatments is low, therefore this analysis served to also assess the robustness of our data and subsequent interpretations. […] Overall, 62 protein kinases were degraded in more than 10 independent treatments, and remarkably, 9 of these (CDK4, AURKA, FER, WEE1, BLK. LIMK2, CDK6, GAK, LIMK1) were each degraded in at least 40 of the 154 independent treatments, emphasizing their predisposition to induced degradation (FIG. 1G; Appendix I).
(§2) Next, the frequency of degradation assessment was corrected for over-representation of molecules in the full dataset by omitting replicate profiling of compounds under different experimental conditions, to remove any bias. […] Unsurprisingly, the top degradable kinases mirror those from the previous analysis (CDK4, AURKA, FER, WEE1, BLK), confirming that in sufficiently large datasets, even with over-representation of certain molecules, frequency of degradation is a good measure of general tractability.

For assay [2], the target named is T1, protein kinases (human kinome) (Homo sapiens, UniProt P42680).
T1 sequence (P42680 1-631): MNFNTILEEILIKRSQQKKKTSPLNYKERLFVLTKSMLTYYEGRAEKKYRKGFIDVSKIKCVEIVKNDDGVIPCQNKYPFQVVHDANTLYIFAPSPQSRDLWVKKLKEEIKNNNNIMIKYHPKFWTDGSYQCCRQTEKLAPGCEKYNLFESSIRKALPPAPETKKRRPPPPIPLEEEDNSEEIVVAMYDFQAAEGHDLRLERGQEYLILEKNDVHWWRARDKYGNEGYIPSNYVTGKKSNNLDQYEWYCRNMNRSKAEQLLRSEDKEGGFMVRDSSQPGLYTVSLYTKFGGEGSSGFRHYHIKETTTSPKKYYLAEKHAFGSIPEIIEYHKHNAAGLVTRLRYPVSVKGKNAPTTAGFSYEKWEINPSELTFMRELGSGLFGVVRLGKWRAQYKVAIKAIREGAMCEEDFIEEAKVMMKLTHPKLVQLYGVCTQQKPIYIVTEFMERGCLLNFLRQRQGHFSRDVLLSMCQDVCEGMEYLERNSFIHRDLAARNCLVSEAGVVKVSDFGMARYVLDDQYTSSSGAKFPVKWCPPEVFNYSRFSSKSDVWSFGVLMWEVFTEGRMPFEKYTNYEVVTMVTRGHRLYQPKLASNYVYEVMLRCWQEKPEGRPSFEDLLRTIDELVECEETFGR
Conditions: TEC (P42680), experiment wp047.
Description: as §1, §2

Assay [3] deals with protein kinases (human kinome) (Homo sapiens, UniProt P51451). Conditions: for logFC of BLK: BLK P51451; for logFC of BLK (P51451): down.
protein kinases (human kinome) (Homo sapiens, UniProt P51451), sequence (P51451 whole entry): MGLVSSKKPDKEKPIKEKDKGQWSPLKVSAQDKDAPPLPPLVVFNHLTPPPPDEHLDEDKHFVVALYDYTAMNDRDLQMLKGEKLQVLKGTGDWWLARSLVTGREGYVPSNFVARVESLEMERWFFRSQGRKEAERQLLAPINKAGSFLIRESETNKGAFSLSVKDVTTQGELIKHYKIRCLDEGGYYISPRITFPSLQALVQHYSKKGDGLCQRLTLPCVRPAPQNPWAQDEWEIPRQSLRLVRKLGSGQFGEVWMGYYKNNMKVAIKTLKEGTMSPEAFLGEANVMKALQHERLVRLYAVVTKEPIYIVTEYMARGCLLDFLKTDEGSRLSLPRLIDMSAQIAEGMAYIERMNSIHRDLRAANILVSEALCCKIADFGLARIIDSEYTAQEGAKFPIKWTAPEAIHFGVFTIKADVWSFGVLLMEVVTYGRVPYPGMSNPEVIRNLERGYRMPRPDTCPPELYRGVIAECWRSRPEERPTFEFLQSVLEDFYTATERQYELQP
Description: as §1, §2

The target in assay [4] is protein kinases (human kinome) (Homo sapiens, UniProt P41240). Conditions: experiment wp047.
protein kinases (human kinome) (Homo sapiens, UniProt P41240), sequence (P41240 whole entry): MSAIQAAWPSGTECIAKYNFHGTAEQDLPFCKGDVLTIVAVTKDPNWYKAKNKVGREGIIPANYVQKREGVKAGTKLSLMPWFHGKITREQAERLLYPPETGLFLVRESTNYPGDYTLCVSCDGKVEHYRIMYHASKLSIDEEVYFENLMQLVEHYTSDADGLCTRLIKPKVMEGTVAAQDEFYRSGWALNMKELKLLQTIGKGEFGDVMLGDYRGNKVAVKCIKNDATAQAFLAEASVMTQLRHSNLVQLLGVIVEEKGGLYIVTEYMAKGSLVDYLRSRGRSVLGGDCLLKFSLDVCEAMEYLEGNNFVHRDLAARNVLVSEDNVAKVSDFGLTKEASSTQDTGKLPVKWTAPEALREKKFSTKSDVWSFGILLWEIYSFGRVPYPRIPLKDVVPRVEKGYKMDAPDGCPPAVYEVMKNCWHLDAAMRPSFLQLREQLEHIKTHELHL
Description: as §1, §2

Assay [5] addresses protein kinases (human kinome) (Homo sapiens, UniProt Q9NYV4). The conditions noted are these: experiment wp016.
Description: as §1, §2

Assay [6] has as its target protein kinases (human kinome) (Homo sapiens, UniProt O94804). Conditions: STK10 (O94804), experiment wp016.
Description: as §1, §2

Assay [7] deals with protein kinases (human kinome) (Homo sapiens, UniProt Q00535). The conditions noted are these: experiment wp016.
protein kinases (human kinome) (Homo sapiens, UniProt Q00535), sequence (Q00535 whole entry): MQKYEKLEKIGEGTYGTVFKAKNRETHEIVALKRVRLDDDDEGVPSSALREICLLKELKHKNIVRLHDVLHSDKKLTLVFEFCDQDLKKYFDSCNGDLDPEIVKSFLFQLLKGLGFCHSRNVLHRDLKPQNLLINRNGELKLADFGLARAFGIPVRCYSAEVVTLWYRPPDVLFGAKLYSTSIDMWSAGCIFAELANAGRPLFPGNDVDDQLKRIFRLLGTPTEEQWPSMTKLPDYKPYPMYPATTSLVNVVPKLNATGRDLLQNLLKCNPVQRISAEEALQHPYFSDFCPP
Description: as §1, §2

The target in assay [8] is protein kinases (human kinome) (Homo sapiens, UniProt Q00537). Conditions: experiment wp016.
protein kinases (human kinome) (Homo sapiens, UniProt Q00537), sequence (Q00537 whole entry): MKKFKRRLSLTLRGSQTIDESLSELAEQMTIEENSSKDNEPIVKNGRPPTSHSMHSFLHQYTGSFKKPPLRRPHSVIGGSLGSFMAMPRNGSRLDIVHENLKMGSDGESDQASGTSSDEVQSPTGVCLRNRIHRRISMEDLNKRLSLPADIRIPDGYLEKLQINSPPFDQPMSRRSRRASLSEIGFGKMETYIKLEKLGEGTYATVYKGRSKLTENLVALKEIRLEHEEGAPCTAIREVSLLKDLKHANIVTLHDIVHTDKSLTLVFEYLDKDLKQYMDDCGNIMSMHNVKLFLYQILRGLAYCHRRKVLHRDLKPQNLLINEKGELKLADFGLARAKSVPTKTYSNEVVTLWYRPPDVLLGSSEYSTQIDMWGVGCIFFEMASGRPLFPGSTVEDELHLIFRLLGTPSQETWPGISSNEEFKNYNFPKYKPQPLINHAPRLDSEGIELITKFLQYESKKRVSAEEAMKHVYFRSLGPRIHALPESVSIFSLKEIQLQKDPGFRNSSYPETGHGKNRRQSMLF
Description: as §1, §2

Assay [9] has as its target protein kinases (human kinome) (Homo sapiens, UniProt P50613).
Description: as §1, §2

In assay [10] the target is protein kinases (human kinome) (Homo sapiens, UniProt P16591).
protein kinases (human kinome) (Homo sapiens, UniProt P16591), sequence (P16591 whole entry): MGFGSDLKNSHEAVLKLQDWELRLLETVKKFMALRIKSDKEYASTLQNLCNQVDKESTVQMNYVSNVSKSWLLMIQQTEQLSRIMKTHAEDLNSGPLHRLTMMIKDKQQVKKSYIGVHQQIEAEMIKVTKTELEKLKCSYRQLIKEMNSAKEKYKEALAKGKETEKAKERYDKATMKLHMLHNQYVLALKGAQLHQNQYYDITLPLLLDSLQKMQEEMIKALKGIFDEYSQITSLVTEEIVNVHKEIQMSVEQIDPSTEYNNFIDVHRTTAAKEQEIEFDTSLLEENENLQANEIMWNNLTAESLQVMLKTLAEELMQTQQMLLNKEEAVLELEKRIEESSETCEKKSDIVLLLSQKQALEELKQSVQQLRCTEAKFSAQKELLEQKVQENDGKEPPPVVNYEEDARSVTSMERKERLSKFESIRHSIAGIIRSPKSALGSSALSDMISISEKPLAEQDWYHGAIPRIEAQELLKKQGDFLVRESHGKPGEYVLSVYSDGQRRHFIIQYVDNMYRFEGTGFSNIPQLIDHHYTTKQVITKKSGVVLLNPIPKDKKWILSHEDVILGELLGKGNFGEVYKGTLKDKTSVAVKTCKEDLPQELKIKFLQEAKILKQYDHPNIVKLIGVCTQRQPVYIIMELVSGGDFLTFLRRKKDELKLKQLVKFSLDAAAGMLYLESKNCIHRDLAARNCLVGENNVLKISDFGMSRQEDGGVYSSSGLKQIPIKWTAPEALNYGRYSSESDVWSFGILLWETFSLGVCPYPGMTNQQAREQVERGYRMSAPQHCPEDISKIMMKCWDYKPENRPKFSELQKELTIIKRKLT
Description: as §1, §2

Assay [11] has as its target protein kinases (human kinome) (Homo sapiens, UniProt P53671). The conditions noted are these: experiment wp016.
Description: as §1, §2

Assay [12] addresses protein kinases (human kinome) (Homo sapiens, UniProt Q00534).
Description: as §1, §2

Assay [13] deals with protein kinases (human kinome) (Homo sapiens, UniProt P24941). The conditions noted are these: experiment wp016.
Description: as §1, §2

Assay [14] concerns the target protein kinases (human kinome) (Homo sapiens, UniProt P11802). The conditions noted are these: experiment wp016.
Description: as §1, §2

The target of assay [15] is protein kinases (human kinome) (Homo sapiens, UniProt P30291). Conditions: experiment wp016.
protein kinases (human kinome) (Homo sapiens, UniProt P30291), sequence (P30291 whole entry): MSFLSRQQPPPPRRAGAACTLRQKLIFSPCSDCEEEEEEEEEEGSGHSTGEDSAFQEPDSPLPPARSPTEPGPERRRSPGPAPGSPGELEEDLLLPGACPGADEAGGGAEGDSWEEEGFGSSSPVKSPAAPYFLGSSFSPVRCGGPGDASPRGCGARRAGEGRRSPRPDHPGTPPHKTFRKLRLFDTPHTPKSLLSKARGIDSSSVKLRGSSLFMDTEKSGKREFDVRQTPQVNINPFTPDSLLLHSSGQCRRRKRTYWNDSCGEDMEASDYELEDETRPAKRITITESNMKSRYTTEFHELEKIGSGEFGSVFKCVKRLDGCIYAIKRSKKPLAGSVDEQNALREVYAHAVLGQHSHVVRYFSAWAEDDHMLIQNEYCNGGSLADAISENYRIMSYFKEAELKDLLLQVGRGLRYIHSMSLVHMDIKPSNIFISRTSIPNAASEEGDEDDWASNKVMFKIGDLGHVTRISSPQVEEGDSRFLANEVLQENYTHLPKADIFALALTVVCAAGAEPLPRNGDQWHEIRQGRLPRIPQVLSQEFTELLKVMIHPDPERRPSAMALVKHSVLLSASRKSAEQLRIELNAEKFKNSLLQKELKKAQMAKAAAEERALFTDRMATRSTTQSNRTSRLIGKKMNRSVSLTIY
Description: as §1, §2

Assay [16] addresses T2, protein kinases (human kinome) (Homo sapiens, UniProt Q08881).
T2 sequence (Q08881 1-620): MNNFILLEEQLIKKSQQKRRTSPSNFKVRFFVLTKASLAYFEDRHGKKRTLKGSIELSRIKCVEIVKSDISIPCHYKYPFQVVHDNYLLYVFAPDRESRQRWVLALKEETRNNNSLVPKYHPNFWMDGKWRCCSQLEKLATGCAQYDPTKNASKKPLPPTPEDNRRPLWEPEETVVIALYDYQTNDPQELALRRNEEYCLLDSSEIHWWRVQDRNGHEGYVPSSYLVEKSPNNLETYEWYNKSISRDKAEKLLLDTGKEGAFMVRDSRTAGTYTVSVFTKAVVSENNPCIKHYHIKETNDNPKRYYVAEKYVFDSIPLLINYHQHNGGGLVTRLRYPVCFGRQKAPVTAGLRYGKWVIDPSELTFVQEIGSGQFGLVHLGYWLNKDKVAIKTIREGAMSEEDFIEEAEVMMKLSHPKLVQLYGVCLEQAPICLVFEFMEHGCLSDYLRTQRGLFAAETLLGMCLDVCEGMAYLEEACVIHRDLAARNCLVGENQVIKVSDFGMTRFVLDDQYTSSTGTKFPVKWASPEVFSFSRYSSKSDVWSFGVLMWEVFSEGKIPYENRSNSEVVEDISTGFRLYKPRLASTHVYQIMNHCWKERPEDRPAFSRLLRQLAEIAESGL
Conditions: experiment wp016.
Description: as §1, §2

The target of assay [17] is protein kinases (human kinome) (Homo sapiens, UniProt Q14289).
protein kinases (human kinome) (Homo sapiens, UniProt Q14289), sequence (Q14289 whole entry): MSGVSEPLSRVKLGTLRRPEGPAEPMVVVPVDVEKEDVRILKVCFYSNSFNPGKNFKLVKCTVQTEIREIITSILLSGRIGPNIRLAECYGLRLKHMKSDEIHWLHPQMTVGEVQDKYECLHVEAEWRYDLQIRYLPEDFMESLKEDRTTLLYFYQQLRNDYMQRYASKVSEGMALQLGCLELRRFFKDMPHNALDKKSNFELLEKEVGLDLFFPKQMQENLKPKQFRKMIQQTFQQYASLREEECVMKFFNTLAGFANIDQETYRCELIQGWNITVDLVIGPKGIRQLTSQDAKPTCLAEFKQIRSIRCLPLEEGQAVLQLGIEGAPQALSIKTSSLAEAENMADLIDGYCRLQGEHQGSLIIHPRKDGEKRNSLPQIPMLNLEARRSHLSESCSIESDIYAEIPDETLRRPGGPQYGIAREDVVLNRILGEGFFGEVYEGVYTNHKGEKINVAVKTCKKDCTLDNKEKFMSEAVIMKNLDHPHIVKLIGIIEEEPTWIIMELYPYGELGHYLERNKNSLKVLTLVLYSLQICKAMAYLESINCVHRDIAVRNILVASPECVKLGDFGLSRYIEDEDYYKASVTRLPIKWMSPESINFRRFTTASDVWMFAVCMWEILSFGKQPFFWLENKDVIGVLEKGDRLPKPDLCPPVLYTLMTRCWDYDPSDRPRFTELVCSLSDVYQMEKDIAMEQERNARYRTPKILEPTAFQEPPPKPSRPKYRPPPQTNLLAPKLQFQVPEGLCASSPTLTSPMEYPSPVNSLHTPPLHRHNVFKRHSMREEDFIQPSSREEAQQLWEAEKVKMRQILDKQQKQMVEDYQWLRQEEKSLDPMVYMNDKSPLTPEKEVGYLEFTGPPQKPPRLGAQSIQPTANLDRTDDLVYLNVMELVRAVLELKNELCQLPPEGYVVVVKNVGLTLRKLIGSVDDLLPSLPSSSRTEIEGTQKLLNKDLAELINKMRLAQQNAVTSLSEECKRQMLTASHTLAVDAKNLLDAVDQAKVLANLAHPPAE
Description: as §1, §2

For assay [18], the target named is protein kinases (human kinome) (Homo sapiens, UniProt Q2M2I8). Conditions: experiment wp016.
Description: as §1, §2

Assay [19] deals with T3, protein kinases (human kinome) (Homo sapiens, UniProt O14965).
T3 sequence (O14965 1-403): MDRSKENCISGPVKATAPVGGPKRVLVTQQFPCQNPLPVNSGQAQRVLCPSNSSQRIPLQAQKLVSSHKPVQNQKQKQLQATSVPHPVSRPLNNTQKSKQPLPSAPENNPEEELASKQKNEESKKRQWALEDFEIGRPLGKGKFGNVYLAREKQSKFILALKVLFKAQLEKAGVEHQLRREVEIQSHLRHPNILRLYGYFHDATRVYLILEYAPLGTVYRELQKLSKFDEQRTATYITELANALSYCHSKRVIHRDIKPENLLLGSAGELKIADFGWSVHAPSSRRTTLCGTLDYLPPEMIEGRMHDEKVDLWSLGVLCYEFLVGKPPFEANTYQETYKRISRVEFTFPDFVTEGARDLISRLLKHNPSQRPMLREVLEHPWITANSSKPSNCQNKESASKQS
Conditions: experiment wp016.
Description: as §1, §2

protein kinases (human kinome) (Homo sapiens, UniProt Q00534), sequence (Q00534 whole entry): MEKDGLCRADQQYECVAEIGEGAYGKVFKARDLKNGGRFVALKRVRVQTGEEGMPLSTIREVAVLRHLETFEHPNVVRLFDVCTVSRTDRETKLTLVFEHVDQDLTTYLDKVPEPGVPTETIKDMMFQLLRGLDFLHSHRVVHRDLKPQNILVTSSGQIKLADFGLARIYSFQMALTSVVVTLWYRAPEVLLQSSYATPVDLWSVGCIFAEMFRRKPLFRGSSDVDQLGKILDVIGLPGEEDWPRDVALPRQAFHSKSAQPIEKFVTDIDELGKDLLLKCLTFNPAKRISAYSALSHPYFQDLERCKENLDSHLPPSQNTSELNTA
protein kinases (human kinome) (Homo sapiens, UniProt P11802), sequence (P11802 whole entry): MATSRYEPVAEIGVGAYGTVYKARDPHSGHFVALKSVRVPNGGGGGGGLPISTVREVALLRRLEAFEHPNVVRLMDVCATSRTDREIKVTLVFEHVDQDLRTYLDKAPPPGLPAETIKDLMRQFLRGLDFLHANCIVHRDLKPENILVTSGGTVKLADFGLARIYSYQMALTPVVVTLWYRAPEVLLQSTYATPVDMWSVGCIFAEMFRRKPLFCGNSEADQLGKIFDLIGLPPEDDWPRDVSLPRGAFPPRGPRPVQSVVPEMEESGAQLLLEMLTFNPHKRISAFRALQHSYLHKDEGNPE

With `Nc1ncnc2c1c(-c1ccc(Oc3ccccc3)cc1)nn2[C@@H]1CCCN(C(=O)CCCN2CCN(CCNC(=O)CCOCCOCCNc3cccc4c3C(=O)N(C3CCC(=O)NC3=O)C4=O)CC2)C1` (some centres unmarked) [DD.03.119], the “logFC FYN” value in [1] (Accession P06241-2, experiment wp047) was −0.8669. For the same compound, in [1] (Accession P12931-2, experiment wp047), the “logFC of SRC” value is on record as −0.6128. Also, the “logFC FYN” value in assay [1] (FYN P06241-2, experiment wp047) is −0.8669. Moreover, in [1] (experiment wp047), the “logFC LCK” value is on record as −1.787, the “logFC ABL2 (P42684-5)” value is recorded as −1.047, the “logFC of ABL2 (P42684-5)” value is −1.047 and the “logFC LCK (P06239-3)” value is recorded as −1.787. The logFC in assay [1] (SRC (P12931-2) protein abundance) was −0.6128. The compound further displayed a logFC in [2] of −2.272. The same compound came in with a logFC in assay [2] (direction down) of −2.272. The “logFC of BLK” value in [3] (experiment wp047) is given as −1.859. Moreover, the “logFC of BLK (P51451)” value in assay [3] (Experiment wp047) was −1.859. Moreover, the “logFC of CSK” value in assay [4] (Accession P41240) is on record as −1.786. Besides, the “logFC CSK” value in [4] (CSK (P41240), down) is given as −1.786.

With `CC(C)S(=O)(=O)c1ccccc1Nc1nc(Nc2ccc(N3CCN(CCOCCOCCOCCNC(=O)CNc4ccc5c(c4)C(=O)N(C4CCC(=O)NC4=O)C5=O)CC3)cc2)ncc1Cl` (centres unmarked) [SK.3.89], the “logFC CDK12” value in [5] (Accession Q9NYV4-1) and in assay [5] (CDK12 (Q9NYV4-1)) was −0.5237 each time. Further, the logFC in assay [1] (CDK9 (P50750-2) protein abundance) is −0.4777; in assay [6], −0.3539; in assay [6] (direction down), −0.3539; in [9] (CDK7 (P50613) protein abundance, degrader vs DMSO, down) it was −0.7959; in [17] (PTK2B (Q14289-1) protein abundance, degrader vs DMSO, down) it was −3.554. Moreover, in assay [1] (experiment wp016), the “logFC LCK” value is −0.449. Further, the “logFC CDK9 (P50750-2)” value in assay [1] (experiment wp016) is −0.4777. Besides, the “logFC LCK (P06239-3)” value in assay [1] (experiment wp016) is reported as −0.449. For the same compound, in assay [7] (Accession Q00535), the “logFC of CDK5” value is recorded as −0.6254. For the same compound, the “logFC CDK5 (Q00535)” value in assay [7] (direction of change down) is −0.6254. In addition, in [8] (Accession Q00537), the “logFC of CDK17” value is reported as −0.6057. The “logFC CDK17 (Q00537)” value in assay [8] (direction of change down) was −0.6057. The “logFC CDK7” value in [9] (CDK7 P50613, experiment wp016) is on record as −0.7959. Moreover, in assay [10] (Experiment wp016, down), the “logFC of FER (P16591-1)” value is −2.262. Also, in assay [10] (FER P16591-1, experiment wp016), the “logFC of FER” value is given as −2.262. In assay [11] (LIMK2 (P53671), down), the “logFC LIMK2” value was −0.444. Besides, the “logFC of LIMK2” value in [11] (LIMK2 P53671) is given as −0.444. Further, in assay [12] (CDK6 (Q00534), direction down, experiment wp016), the “logFC CDK6” value is recorded as −0.3396. Further, the “logFC of CDK6 (Q00534)” value in assay [12] (Experiment wp016, down) is recorded as −0.3396. The “logFC CDK2 (P24941-1)” value in assay [13] and in assay [13] (direction of change down) was −0.5953 each time. Further, in assay [14], the “logFC CDK4 (P11802)” value is −0.5177. Besides, the “logFC of BLK” value in [3] (experiment wp016) is recorded as −1.335. Besides, the “logFC of BLK (P51451)” value in [3] (Experiment wp016) is on record as −1.335. Moreover, in assay [15], the “logFC WEE1 (P30291-1)” value is −1.017. For the same compound, the “logFC ITK (Q08881)” value in assay [16] and in [16] (direction of change down) was −2.044 each time. In addition, the “logFC PTK2B” value in [17] (PTK2B, accession Q14289-1, experiment wp016, direction of change down) is listed as −3.554. For the same compound, the “logFC AAK1” value is recorded as −1.219 in assay [18] (AAK1 (Q2M218-1), down) and −1.219 in assay [18] (AAK1, accession Q2M218-1, direction of change down). Also, the “logFC AURKA (O14965)” value in [19] was −1.672.
